According to patent US20250154554A1, “ANTIMICROBIAL SUSCEPTIBILITY” (priority 2022, published 2025):
Counter-ions that a name gives are not always drawn. Like-named read-outs stand apart in the source and are kept apart here.

Assays:
K. aerogenes = assay: MIC of strains giving very major errors (VME); assay type: cell-based; conditions: strain EB 069, site 2
Procedure: (§1) For Colistin (on gram-negative bacteria) and vancomycin (in the case of Staphylococcus), the method used to determine the antimicrobial susceptibility was broth microdilution [5]. […] Standard methodologies were performed from the same inoculum used to spike the blood cultures. Quality control of the reference methods was also performed according to the recommendations of EUCAST and CLSI.
(§2) Positive blood cultures were spiked in blood agar and colonies identified and submitted to antimicrobial susceptibility assay according reference disk diffusion method and/or to MIC values determined by microdilution. The results were analysed using the most recent EUCAST breakpoint tables and the M100 (29th ed.) breakpoint tables from CLSI.

K. pneumoniae = assay: MIC of strains giving very major errors (VME); assay type: cell-based
Procedure: as §1, §2

E. cloacae = assay: MIC of strains giving very major errors (VME); assay type: cell-based
Procedure: as §1, §2

[1] = test system: Gram-negative bacteria (Enterobacterales, Pseudomonas, Acinetobacter); conditions: for RM I (strains intermediate by reference method) / RM R (strains resistant by reference method) / RM S (strains susceptible by reference method): total of 3 sites, blood cultures; for CLSI RM I / EUCAST RM I: number of strains I; for CLSI RM R / EUCAST RM R: number of strains resistant; for CLSI RM S / EUCAST RM S: number of strains susceptible
Procedure: as §1
(§3) All the strains were classified as S, I or R according the reference methods. MIC was determined for vancomycin and colistin. The presence of ESBL on Enterobacterales group I, together with the screening for ESBL on Enterobacterales group II, and the screening for AmpC and presence of carbapenemases according EUCAST protocol for detection of mechanisms of resistance were also performed.
as §2

Enterobacterales = assay: Broth microdilution MIC of meropenem for screening of carbapenemases; assay type: cell-based; conditions: the 2 strains found false negative in the carbapenemase screening
Procedure: Standard methodologies were performed from the same inoculum used to spike the blood cultures. Quality control of the reference methods was also performed according to the recommendations of EUCAST and CLSI.

fungi = conditions: by cell membrane lesions; reference [13]; cited from earlier work
bacteria = conditions: by cell membrane lesions; reference [14]; cited from earlier work
[2] = test system: Gram-positive bacteria (Staphylococcus spp, Enterococcus spp); assay: Reference method (RM): disk diffusion and/or broth microdilution, S/I/R classification, Gram-positive strains; assay type: cell-based; conditions: for CLSI RM R / EUCAST RM R: number of strains resistant; for CLSI RM S / EUCAST RM S: number of strains susceptible;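 as to all read-outs here: susceptibility categories assigned with the latest EUCAST breakpoint tables or CLSI M100 29th edition breakpoints, with quality control of the reference methods following EUCAST and CLSI guidance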
Procedure: as §1, §3, §2

S. aureus = assay: MIC of strains giving very major errors (VME); assay type: cell-based; conditions: strain ST 099, site 2
Procedure: as §1, §2

E. coli = assay: MIC of strains giving very major errors (VME); assay type: cell-based; conditions: strain EB 718, site 1
Procedure: as §1, §2

[3] = CLSI, FASTinov, Porto, spiked on blood cultures
[4] = CLSI, Hospital Ramon et Cajal, Madrid, patients' blood cultures
[5] = EUCAST, FASTinov, Porto, spiked on blood cultures
[6] = EUCAST, Hospital Ramon et Cajal, Madrid, patients' blood cultures
[7] = EUCAST, Hospital S. João, Porto, patients' blood cultures
[8] = CLSI, Hospital S. João, Porto, patients' blood cultures
[9] = CLSI, FASTinov, Porto, spiked blood cultures
[10] = CLSI, total of 3 sites, blood cultures
[11] = EUCAST, FASTinov, Porto, spiked blood cultures
[12] = EUCAST, total of 3 sites, blood cultures
[13] = CLSI, Hospital Ramon et Cajal, Madrid, patients blood cultures
[14] = EUCAST, Hospital Ramon et Cajal, Madrid, patients blood cultures

Compound CC(C)(O/N=C(\C(=O)N[C@@H]1C(=O)N2C(C(=O)[O-])=C(C[n+]3ccccc3)CS[C@H]12)c1csc(N)n1)C(=O)O [Ceftazidime] has an MIC (K. aerogenes; Klebsiella aerogenes) of 16 µg/mL, an MIC (K. pneumoniae; Klebsiella pneumoniae, strain EB 033, site 2, read-out: MIC) of 32 µg/mL and an MIC (E. cloacae; Enterobacter cloacae, strain EB 1168, site 1) of 32 µg/mL. For the same compound, the “RM I (strains intermediate by reference method)” value ([1]; CLSI) was 4, the “RM R (strains resistant by reference method)” value ([1]; CLSI) was 115 and the “RM S (strains susceptible by reference method)” value ([1]; CLSI) was 194. The “RM I (strains intermediate by reference method)” value ([1]; EUCAST) was 34, the “RM R (strains resistant by reference method)” value ([1]; EUCAST) was 119 and the “RM S (strains susceptible by reference method)” value ([1]; EUCAST) was 159. The “CLSI RM I” value [1, 3] was 3, the “CLSI RM I” value [1, 4] was 1 and the “EUCAST RM I” value [1, 5] was 29. The “EUCAST RM I” value [1, 6] was 3, the “EUCAST RM I” value [1, 7] was 2 and the “CLSI RM R” value [1, 3] was 94. The “CLSI RM R” value [1, 4] was 13, the “CLSI RM R” value [1, 8] was 8 and the “EUCAST RM R” value [1, 5] was 98. For the same compound, the “EUCAST RM R” value [1, 6] was 15, the “EUCAST RM R” value [1, 7] was 6 and the “CLSI RM S” value [1, 3] was 56. The “CLSI RM S” value [1, 4] was 64, the “CLSI RM S” value [1, 8] was 74 and the “EUCAST RM S” value [1, 5] was 26. For the same compound, the “EUCAST RM S” value [1, 6] was 60 and the “EUCAST RM S” value [1, 7] was 73.
In the case of C[C@@H](O)[C@H]1C(=O)N2C(C(=O)O)=C(S[C@@H]3CN[C@H](C(=O)N(C)C)C3)[C@H](C)[C@H]12 [Meropenem], the MIC (K. pneumoniae; Klebsiella pneumoniae, strain EB 021, site 2, read-out: MIC) is reported as 16 µg/mL, the MIC (Enterobacterales) is reported as 0.5 µg/mL and the “RM I (strains intermediate by reference method)” value ([1]; CLSI) is reported as 5. For the same compound, the “RM R (strains resistant by reference method)” value ([1]; CLSI) was 10, the “RM S (strains susceptible by reference method)” value ([1]; CLSI) was 217 and the “RM R (strains resistant by reference method)” value ([1]; EUCAST) was 9. The “RM S (strains susceptible by reference method)” value ([1]; EUCAST) was 223, the “CLSI RM I” value [1, 3] was 5 and the “CLSI RM R” value [1, 3] was 7. For the same compound, the “CLSI RM R” value [1, 4] was 3, the “EUCAST RM R” value [1, 5] was 6 and the “EUCAST RM R” value [1, 6] was 3. For the same compound, the “CLSI RM S” value [1, 3] was 69, the “CLSI RM S” value [1, 4] was 72 and the “CLSI RM S” value [1, 8] was 76. The “EUCAST RM S” value [1, 5] was 75, the “EUCAST RM S” value [1, 6] was 72 and the “EUCAST RM S” value [1, 7] was 76.
In the case of CN(C)CCCOc1nn(Cc2ccccc2)c2ccccc12 [benzydamine hydrochloride], the killing of fungi (fungi) is listed as “rapidly kills” and the killing of bacteria (bacteria) is listed as “rapidly kills”.
In the case of Penicillin, the “RM R (strains resistant by reference method)” value [2, 9] is reported as 82, the “RM S (strains susceptible by reference method)” value [2, 9] is reported as 49 and the “RM R (strains resistant by reference method)” value [2, 10] is reported as 209. For the same compound, the “RM S (strains susceptible by reference method)” value [2, 10] was 94, the “RM R (strains resistant by reference method)” value [2, 11] was 28 and the “RM S (strains susceptible by reference method)” value [2, 11] was 7. The “RM R (strains resistant by reference method)” value [2, 12] was 56, the “RM S (strains susceptible by reference method)” value [2, 12] was 19 and the “CLSI RM R” value [2, 13] was 53. The “CLSI RM R” value [2, 8] was 74, the “EUCAST RM R” value [2, 14] was 10 and the “EUCAST RM R” value [2, 7] was 18. The “CLSI RM S” value [2, 13] was 15, the “CLSI RM S” value [2, 8] was 30 and the “EUCAST RM S” value [2, 14] was 2. For the same compound, the “EUCAST RM S” value [2, 7] was 10 and the “MIC” value (S. aureus) was 0.25 µg/mL.
With Piperacillin-tazobactam the “MIC (mg/L)” value (K. aerogenes) was 64/4, the “MIC” value (K. pneumoniae; strain EB 101, site 1) was 64 µg/mL and the “MIC (mg/L)” value (E. cloacae; strain EB 123, site 1) was 64/4. The “RM I (strains intermediate by reference method)” value ([1]; CLSI) was 13, the “RM R (strains resistant by reference method)” value ([1]; CLSI) was 95 and the “RM S (strains susceptible by reference method)” value ([1]; CLSI) was 237. For the same compound, the “RM I (strains intermediate by reference method)” value ([1]; EUCAST) was 51, the “RM R (strains resistant by reference method)” value ([1]; EUCAST) was 86 and the “RM S (strains susceptible by reference method)” value ([1]; EUCAST) was 177. For the same compound, the “CLSI RM I” value [1, 3] was 6, the “CLSI RM I” value [1, 4] was 7 and the “EUCAST RM I” value [1, 5] was 49. For the same compound, the “EUCAST RM I” value [1, 6] was 2, the “CLSI RM R” value [1, 3] was 87 and the “CLSI RM R” value [1, 4] was 2. For the same compound, the “CLSI RM R” value [1, 8] was 6, the “EUCAST RM R” value [1, 5] was 71 and the “EUCAST RM R” value [1, 6] was 9. The “EUCAST RM R” value [1, 7] was 6, the “CLSI RM S” value [1, 3] was 90 and the “CLSI RM S” value [1, 4] was 71. For the same compound, the “CLSI RM S” value [1, 8] was 76, the “EUCAST RM S” value [1, 5] was 33 and the “EUCAST RM S” value [1, 6] was 69. For the same compound, the “EUCAST RM S” value [1, 7] was 75 and the “MIC (mg/L)” value (E. coli) was >128/4.
